Holding throughout (format): functional
For assay [1], the species on record is Rattus norvegicus. Nature of the assay: Effect on the average tumor mass was determined in DMBA treated rats on day 6 (5 rats with tumors out of 10 rats).
The species named for assay [2] is Rattus norvegicus. The assay can be described thus: Effect on the tumor incidence was determined in DMBA treated rats on day 30 (1 rats with tumors out of 10 rats).
The species entered for assay [3] is Rattus norvegicus. Nature of the assay: Effect on the average tumor mass was determined in DMBA treated rats on day 30 (1 rats with tumors out of 10 rats).
The species entered for assay [4] is Rattus norvegicus. The assay can be described thus: Effect on the average tumor mass was determined in DMBA treated rats on day 8 (3 rats with tumors out of 10 rats).
The species named for assay [5] is Rattus norvegicus. Nature of the assay: Effect on the average tumor number was determined in DMBA treated rats on day 30 (1 rats with tumors out of 10 rats).
The species entered for assay [6] is Rattus norvegicus. Nature of the assay: Effect on the tumor incidence was determined in DMBA treated rats on day 150 (3 rats with tumors out of 10 rats).
The species named for assay [7] is Rattus norvegicus. The assay can be described thus: Effect on the tumor incidence was determined in DMBA treated rats on day 1 (5 rats with tumors out of 10 rats).
The species entered for assay [8] is Rattus norvegicus. The assay can be described thus: Effect on the average tumor mass was determined in DMBA treated rats on day 150 (3 rats with tumors out of 10 rats).
Assay [9] is filed under the species Rattus norvegicus. The assay can be described thus: Effect on the tumor incidence was determined in DMBA treated rats on day 8 (3 rats with tumors out of 10 rats).
The species entered for assay [10] is Rattus norvegicus. The assay can be described thus: Effect on the average tumor number was determined in DMBA treated rats on day 1 (5 rats with tumors out of 10 rats).
For assay [11], the species on record is Rattus norvegicus. Nature of the assay: Effect on the tumor incidence was determined in DMBA treated rats on day 6 (5 rats with tumors out of 10 rats).
The species entered for assay [12] is Rattus norvegicus. Nature of the assay: Effect on the average tumor mass was determined in DMBA treated rats on day 1 (5 rats with tumors out of 10 rats).
Assay [13] is filed under the species Rattus norvegicus. Nature of the assay: Effect on the average tumor number was determined in DMBA treated rats on day 150 (3 rats with tumors out of 10 rats).
The species entered for assay [14] is Rattus norvegicus. The assay can be described thus: Effect on the average tumor number was determined in DMBA treated rats on day 6 (5 rats with tumors out of 10 rats).
The species entered for assay [15] is Rattus norvegicus. The assay can be described thus: Effect on the average tumor number was determined in DMBA treated rats on day 8 (3 rats with tumors out of 10 rats).
For assay [16], the species on record is Rattus norvegicus. Nature of the assay: Effect on the tumor incidence was determined in DMBA treated rats on day 150 (2 rats with tumors out of 10 rats).
Assay [17] is filed under the species Rattus norvegicus. Nature of the assay: Effect on the average tumor number was determined in DMBA treated rats on day 30 (3 rats with tumors out of 10 rats).
For assay [18], the species on record is Rattus norvegicus. The assay can be described thus: Effect on the average tumor mass was determined in DMBA treated rats on day 30 (3 rats with tumors out of 10 rats).
The species entered for assay [19] is Rattus norvegicus. Nature of the assay: Effect on the tumor incidence was determined in DMBA treated rats on day 8 (4 rats with tumors out of 10 rats).
Assay [20] is filed under the species Rattus norvegicus. Nature of the assay: Effect on the average tumor mass was determined in DMBA treated rats on day 8 (4 rats with tumors out of 10 rats).
For assay [21], the species on record is Rattus norvegicus. The assay can be described thus: Effect on the average tumor number was determined in DMBA treated rats on day 150 (2 rats with tumors out of 10 rats).
The species named for assay [22] is Rattus norvegicus. Nature of the assay: Effect on the average tumor mass was determined in DMBA treated rats on day 150 (2 rats with tumors out of 10 rats).
The species named for assay [23] is Rattus norvegicus. Nature of the assay: Effect on the tumor incidence was determined in DMBA treated rats on day 30 (3 rats with tumors out of 10 rats).
For assay [24], the species on record is Rattus norvegicus. The assay can be described thus: Effect on the average tumor number was determined in DMBA treated rats on day 8 (4 rats with tumors out of 10 rats).
The species entered for assay [25] is Rattus norvegicus. The assay can be described thus: Effect on the average tumor mass was determined in DMBA treated rats on day 150 (9 rats with tumors out of 10 rats).
Assay [26] is filed under the species Rattus norvegicus. Nature of the assay: Effect on the average tumor mass was determined in DMBA treated rats on day 30 (9 rats with tumors out of 10 rats).
Assay [27] is filed under the species Rattus norvegicus. Nature of the assay: Effect on the tumor incidence was determined in DMBA treated rats on day 30 (9 rats with tumors out of 10 rats).
Assay [28] is filed under the species Rattus norvegicus. The assay can be described thus: Effect on the average tumor number was determined in DMBA treated rats on day 150 (9 rats with tumors out of 10 rats).
Assay [29] is filed under the species Rattus norvegicus. Nature of the assay: Effect on the tumor incidence was determined in DMBA treated rats on day 150 (9 rats with tumors out of 10 rats).
The species entered for assay [30] is Rattus norvegicus. Nature of the assay: Effect on the average tumor number was determined in DMBA treated rats on day 30 (9 rats with tumors out of 10 rats).
For assay [31], the species on record is Rattus norvegicus. Nature of the assay: Effect on the average tumor number was determined in DMBA treated rats on day 30 (10 rats with tumors out of 10 rats).
The species named for assay [32] is Rattus norvegicus. The assay can be described thus: Effect on the average tumor mass was determined in DMBA treated rats on day 30 (10 rats with tumors out of 10 rats).
For assay [33], the species on record is Rattus norvegicus. Nature of the assay: Effect on the average tumor mass was determined in DMBA treated rats on day 6 (4 rats with tumors out of 10 rats).
For assay [34], the species on record is Rattus norvegicus. Nature of the assay: Effect on the average tumor number was determined in DMBA treated rats on day 150 (10 rats with tumors out of 10 rats).
Assay [35] is filed under the species Rattus norvegicus. The assay can be described thus: Effect on the average tumor number was determined in DMBA treated rats on day 6 (4 rats with tumors out of 10 rats).
For assay [36], the species on record is Rattus norvegicus. Nature of the assay: Effect on the average tumor mass was determined in DMBA treated rats on day 150 (10 rats with tumors out of 10 rats).
For assay [37], the species on record is Rattus norvegicus. Nature of the assay: Effect on the tumor incidence was determined in DMBA treated rats on day 30 (10 rats with tumors out of 10 rats).
The species named for assay [38] is Rattus norvegicus. The assay can be described thus: Effect on the tumor incidence was determined in DMBA treated rats on day 6 (4 rats with tumors out of 10 rats).
The species entered for assay [39] is Rattus norvegicus. Nature of the assay: Effect on the tumor incidence was determined in DMBA treated rats on day 150 (10 rats with tumors out of 10 rats).

Several values for one entry are separate records, joined by “and”; a condition that tells them apart may be missing. Equal values may be shown once.

For `CC(C)[C@@H]1C(=O)N2CCC[C@H]2[C@]2(O)O[C@](NC(=O)[C@@H]3C=C4c5cccc6[nH]cc(c56)C[C@H]4N(C)C3)(C(C)C)C(=O)N12.C[C@]12CC[C@@H]3c4ccc(O)c(F)c4CC[C@H]3[C@@H]1CC[C@@H]2O.O=C(O)/C=C\C(=O)O`, the Tumor mass in the assay listed under Rattus norvegicus [1] is on record as 0.2 g; in the assay listed under Rattus norvegicus [3] it was 0.3 g; in the assay listed under Rattus norvegicus [4], 0.2 g; in the assay filed under Rattus norvegicus [8], 2.7 g; in the assay filed under Rattus norvegicus [12] it was 0.4 g. Further, the Total tumors in the assay filed under Rattus norvegicus [2] came out at 1; in the assay filed under Rattus norvegicus [6], 3; in the assay listed under Rattus norvegicus [7], 6; in the assay filed under Rattus norvegicus [9], 3; in the assay filed under Rattus norvegicus [11], 5. Moreover, the Tumor number in the assay listed under Rattus norvegicus [5] came to 1; in the assay filed under Rattus norvegicus [10] it was 1.2; in the assay listed under Rattus norvegicus [13] it was 1; in the assay listed under Rattus norvegicus [14], 1; in the assay listed under Rattus norvegicus [15], 1.

For the molecule `CC(=O)[C@H]1CC[C@H]2[C@@H]3CCC4=CC(=O)CC[C@]4(C)[C@H]3CC[C@]12C.CC(C)[C@@H]1C(=O)N2CCC[C@H]2[C@]2(O)O[C@](NC(=O)[C@@H]3C=C4c5cccc6[nH]cc(c56)C[C@H]4N(C)C3)(C(C)C)C(=O)N12.C[C@]12CC[C@@H]3c4ccc(O)c(F)c4CC[C@H]3[C@@H]1CC[C@@H]2O.O=C(O)/C=C\C(=O)O`, the Tumor mass was 0.8 g and 0.6 g in the assay filed under Rattus norvegicus [1]; 0.5 g in the assay listed under Rattus norvegicus [3]; 0.3 g in the assay listed under Rattus norvegicus [18]; 1.2 g in the assay filed under Rattus norvegicus [8]; 0.5 g and 0.6 g in the assay listed under Rattus norvegicus [20]; 0.5 g and 0.4 g in the assay listed under Rattus norvegicus [12]. The molecule also yielded a Tumor mass in the assay listed under Rattus norvegicus [22] of 5 g. Also, the Total tumors in the assay filed under Rattus norvegicus [2] is 1; in the assay listed under Rattus norvegicus [16] it was 5; in the assay filed under Rattus norvegicus [6] it was 3; in the assay filed under Rattus norvegicus [7] it was 5 and 6; in the assay listed under Rattus norvegicus [19] it was 5 and 6; in the assay listed under Rattus norvegicus [11], 7. This molecule also displayed a Total tumors in the assay filed under Rattus norvegicus [23] of 3. Further, the Tumor number is 1 in the assay filed under Rattus norvegicus [5]; 1 in the assay filed under Rattus norvegicus [17]; 2.5 in the assay listed under Rattus norvegicus [21]; 1 and 1.2 in the assay listed under Rattus norvegicus [10]; 1 in the assay listed under Rattus norvegicus [13]; 1.4 in the assay filed under Rattus norvegicus [14]. Moreover, in the assay filed under Rattus norvegicus [24], the Tumor number was 1.3 and 1.4.

For `CC(C)[C@@H]1C(=O)N2CCC[C@H]2[C@]2(O)O[C@](NC(=O)[C@@H]3C=C4c5cccc6[nH]cc(c56)C[C@H]4N(C)C3)(C(C)C)C(=O)N12.O=C(O)/C=C\C(=O)O`, the Tumor mass was 0.4 g in the assay listed under Rattus norvegicus [1]; 1.7 g in the assay filed under Rattus norvegicus [25]; 0.4 g in the assay filed under Rattus norvegicus [20]; 0.4 g in the assay filed under Rattus norvegicus [26]; 0.8 g in the assay listed under Rattus norvegicus [12]. For the same molecule, the Total tumors in the assay filed under Rattus norvegicus [7] was determined as 8; in the assay listed under Rattus norvegicus [19], 5; in the assay filed under Rattus norvegicus [27], 12; in the assay filed under Rattus norvegicus [11], 6; in the assay filed under Rattus norvegicus [29], 16. Moreover, the Tumor number was determined as 1.9 in the assay filed under Rattus norvegicus [28]; 1.6 in the assay listed under Rattus norvegicus [10]; 1.2 in the assay filed under Rattus norvegicus [14]; 1.3 in the assay filed under Rattus norvegicus [24]; 1.3 in the assay filed under Rattus norvegicus [30].

Consider `CC(=O)[C@H]1CC[C@H]2[C@@H]3CCC4=CC(=O)CC[C@]4(C)[C@H]3CC[C@]12C.CC(C)[C@@H]1C(=O)N2CCC[C@H]2[C@]2(O)O[C@](NC(=O)[C@@H]3C=C4c5cccc6[nH]cc(c56)C[C@H]4N(C)C3)(C(C)C)C(=O)N12.O=C(O)/C=C\C(=O)O`, for which the Tumor number came out at 1.5 in the assay listed under Rattus norvegicus [31]; 1.7 in the assay filed under Rattus norvegicus [34]; 1.2 in the assay listed under Rattus norvegicus [10]; 1 in the assay listed under Rattus norvegicus [35]; 1.3 in the assay listed under Rattus norvegicus [15]. Further, the Tumor mass is recorded as 0.9 g in the assay filed under Rattus norvegicus [4]; 1.5 g in the assay filed under Rattus norvegicus [32]; 0.7 g in the assay listed under Rattus norvegicus [33]; 0.4 g in the assay listed under Rattus norvegicus [12]; 4 g in the assay listed under Rattus norvegicus [36]. For the same molecule, the Total tumors is reported as 6 in the assay filed under Rattus norvegicus [7]; 4 in the assay filed under Rattus norvegicus [9]; 15 in the assay filed under Rattus norvegicus [37]; 4 in the assay listed under Rattus norvegicus [38]; 17 in the assay filed under Rattus norvegicus [39].

The values above are taken from ChEMBL document CHEMBL1122295, “Modified steroid hormones. 7. 4-Fluoro-17 beta-estradiol: carbon-13 nuclear magnetic resonance, crystal and molecular structure, and biological activity” (1983).
